Source: patent US20090030037A1, “Sustained Release Formulation and Dosing Schedules of Leukotriene Synthesis Inhibitor for Human Therapy” (deCODE Genetics ehf., priority 2005, published 2009)

Tested on: LTB4
Assay: Study DG-031-204: ionomycin-stimulated LTB4 in whole blood
Assay type: in vivo, human
Conditions: for Stimulated LTB4 (% change from baseline, whole blood, WBC corrected, 15 minute): after 4 weeks
Description: Briefly, the cell pellets from the Ficoll gradient were harvested and the red blood cells were subsequently lysed in 0.165 M NH4CL for 10 minutes on ice. After washing with PBS, neutrophils were counted and plated at 2×10^6 cells/ml in 4 ml cultures of 15% Fetal calf serum (FCS) (GIBCO BRL) in RPMI-1640 (GIBCO BRL). The cells were then stimulated with maximum effective concentration of ionomycin (1 μM). At 0, 15, 30, 60 minutes post ionomycin addition 600 μl of culture medium was aspirated and stored at −80° C. for the measurement of LTB4 release as described below. The cells were maintained at 37° C. in a humidified atmosphere of 5% CO2/95% air. All samples were treated with indomethasine (1 μM) to block the cyclooxygenase enzyme. The experimental conditions are described above.
LTB4 Immunoassay Assay Design was used to quantitate LTB4 concentration in supernatant from cultured ionomycin stimulated neutrophils. The assay used is based on the competitive binding technique in which LTB4 present in the testing samples (200 μl) competes with a fixed amount of alkaline phosphatase-labelled LTB4 for sites on a rabbit polyclonal antibody. During the incubation, the polyclonal Ab becomes bound to a goat anti-rabbit Ab coated onto the microplates. Following a wash to remove excess conjugate and unbound sample, a substrate solution is added to the wells to determine the bound enzyme activity. The color development is stopped and the absorbance is read at 405 nm. The intensity of the color is inversely proportional to the concentration of LTB4 in the sample. Each LTB4 measurement using the LTB4 Immunoassay, was done in duplicate. […]
The biomarkers were analyzed as described in Example 1. […]
Serum was collected weekly for determination of LTB4 concentration in response to the treatment with DG-031. […] Stimulated LTB4 effects measured in study DG-031-204, as shown in the raw data set out in Table 12, appear consistent with projections from the exposure-response analysis based on data from studies DG-031-201 and DG-031-203. […]

## O=C(O)[C@@H](c1ccc(OCc2ccc3ccccc3n2)cc1)C1CCCC1 [DG-031, (R)-(+)-alpha-cyclopentyl-4-(2-quinolinylmethoxy)-Benzeneacetic acid]
500 mg BID
  Reduction of LTB4 levels, ionophore-stimulation assay: 35%
1000 mg (500 mg BID)
  Stimulated LTB4 (% change from baseline, whole blood, WBC corrected, 15 minute): −44%
1500 mg (500 mg TID)
  Stimulated LTB4 (% change from baseline, whole blood, WBC corrected, 15 minute): −28%
